In US6384281B1, “3-bicycloaryl-2-aminomethyl bicycloalkanes as serotonine reuptake inhibitors” (Eli Lilly and Company, priority 1999, dated 2002):
Counter-ions that a name gives are not always drawn.

tested on: not given; test: not given; conditions: not given

SMILES | melting point [°C]
CN(C)C[C@H]1[C@H]2CC[C@H](C2)[C@@H]1c1ccc2ccsc2c1 (as salt: hydrochloride) | 240 to 242
Cc1csc2ccc([C@@H]3[C@H]4CC[C@H](C4)[C@H]3CN(C)C)cc12 (as salt: hydrochloride) [N,N-dimethyl[(1R,2R,3R,4S)-3-(3-methyl-1-benzothien-5-yl)bicyclo[2.2.1]hept-2-yl]methanamine] | 250 to 252
CN(C)C[C@H]1[C@H]2CC[C@H](C2)[C@@H]1c1ccc2cc(F)ccc2c1 (as salt: hydrochloride) [[(1S,2S,3S,4R)-3-(6-fluoro-2-naphthyl)bicyclo[2.2.1]hept-2-yl]-N,N-dimethylmethanamine] | 137 to 138
CN(C)CC1C2CCC(C2)C1c1ccc2ccccc2c1 (stereo not drawn) (as salt: hydrochloride) [cis- N,N-dimethyl(3-naphthalen-2-ylbicyclo[2.2.1]hept-2-yl)m] [cis-N,N-dimethyl (3-naphthalen-2-ylbicyclo[2.2.1]hept-2-yl)methanamine] | 255 to 257
CN(C)CC1C2CCC(C2)C1c1ccc2ccccc2c1 (stereo not drawn) (as salt: hydrochloride) [trans-endo-N,N-dimethyl(3-naphthalen-2-ylbicyclo[2.2.1]hept-] [trans-endo-N,N-dimethyl(3-naphthalen-2-ylbicyclo[2.2.1]hept-2-yl)methanamine] | 249 to 250

molecular target: T1, [3H]-citalopram binding sites on rat cerebral cortical membranes (serotonin reuptake) (Rattus norvegicus, UniProt P31652); test: [3H]-Citalopram binding assay; conditions: not given
T1 construct: from tissue; host or cells: rat cerebral cortex membranes
T1 sequence (P31652 whole entry): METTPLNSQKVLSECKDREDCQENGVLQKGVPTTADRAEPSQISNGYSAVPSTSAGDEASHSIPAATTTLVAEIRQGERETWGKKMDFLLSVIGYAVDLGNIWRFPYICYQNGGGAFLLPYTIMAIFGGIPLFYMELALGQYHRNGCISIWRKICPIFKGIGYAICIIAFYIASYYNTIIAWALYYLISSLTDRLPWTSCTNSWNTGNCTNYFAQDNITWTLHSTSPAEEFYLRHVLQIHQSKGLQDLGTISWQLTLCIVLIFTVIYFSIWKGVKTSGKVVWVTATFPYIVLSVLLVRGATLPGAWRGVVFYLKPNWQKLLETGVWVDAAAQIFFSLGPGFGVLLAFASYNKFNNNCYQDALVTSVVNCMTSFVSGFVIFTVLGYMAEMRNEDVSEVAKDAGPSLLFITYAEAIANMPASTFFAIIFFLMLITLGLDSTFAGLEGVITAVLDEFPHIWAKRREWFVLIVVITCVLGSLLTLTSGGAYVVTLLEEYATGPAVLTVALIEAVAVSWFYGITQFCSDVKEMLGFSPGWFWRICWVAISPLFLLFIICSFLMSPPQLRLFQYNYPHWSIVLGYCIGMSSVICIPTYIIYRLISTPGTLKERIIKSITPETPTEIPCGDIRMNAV

SMILES | Ki [nM]
CN(C)C[C@H]1[C@H]2CC[C@H](C2)[C@@H]1c1ccc2cc(F)ccc2c1 [[(1S,2S,3S,4R)-3-(6-fluoro-2-naphthyl)bicyclo[2.2.1]hept-2-yl]-N,N-dimethylmethanamine] | < 100
CN(C)CC1C2CCC(C2)C1c1ccc2ccccc2c1 (stereo not drawn) [trans-endo-N,N-dimethyl(3-naphthalen-2-ylbicyclo[2.2.1]hept-2-yl)methanamine] | < 100
CNCC1C2CCC(C2)C1c1ccc2ccccc2c1 (stereo not drawn) [trans-endo-N-methyl (3-naphthalen-2-ylbicyclo [2.2.1]hept-2-yl)methanamine] | < 100

same assay, conditions: displacement of [3H]-citalopram, rat cerebral cortical membranes, 37° C. for 90 minutes; read-out: Ki

SMILES | Ki [nM]
Cc1csc2ccc([C@@H]3[C@H]4CC[C@H](C4)[C@H]3CN(C)C)cc12 [N,N-dimethyl[(1R,2R,3R,4S)-3-(3-methyl-1-benzothien-5-yl)bicyclo[2.2.1]hept-2-yl]methanamine] | < 100
CN(C)C[C@H]1[C@H]2CC[C@H](C2)[C@@H]1c1cc2ccc(F)cc2s1 [[(1S,2S,3S,4R)-3-(6-fluoro-1-benzothien-2-yl)bicyclo[2.2.1]hept-2-yl)-N,N-dimethylmethanamine] | < 100
CN(C)C[C@H]1[C@H]2CC[C@H](C2)[C@@H]1c1csc2cc(F)ccc12 [[(1S,2S,3S,4R)-3-(6-fluoro-1-benzothien-3-yl)bicyclo[2.2.1]hept-2-yl]-N,N-dimethylmethanamine] | < 100
NCC1C2CCC(CC2)C1c1ccc2ccccc2c1 (stereo not drawn) [trans-(3-Naphthalen-2-ylbicyclo[2.2 .2]oct-2-yl)methanamine] | < 100
